The source of these data is ChEMBL document CHEMBL1140491, “Amino-caprolactam derivatives as gamma-secretase inhibitors” (Bioorg Med Chem Lett, 2007).

Data set [1] can be described thus: Ratio of drug level in brain to plasma in Tg2576 mouse at 200 mg/kg, po after 3 hrs.
Data set [2] can be described thus: Drug level in Tg2576 mouse brain at 200 µmol/kg, po after 3 hrs. As to conditions: read-out: Drug uptake.
Data set [3] in a line: Drug level in Tg2576 mouse plasma at 200 µmol/kg, po after 3 hrs.

On to `COc1ccc(CN([C@@H]2CCCCNC2=O)S(=O)(=O)c2ccc(Cl)cc2)cc1`, for which the Kp at 3 h in data set [1] was 7. The concentration at 3 h in data set [2] stood at 2200 nM; in data set [3], 280 nM.
Take `CN(C)c1ccc(CN([C@@H]2CCCCNC2=O)S(=O)(=O)c2ccc(Cl)cc2)cc1`: the partition ratio (Kp) at 3 h in data set [1] was found to be 2.8. The concentration at 3 h was determined as 4200 nM in data set [2] and 1600 nM in data set [3].

Usually Kp stands for the ratio of the level in a tissue or fluid to that in plasma or blood.
